Active and inactive are the calls of the source. The calls are words filed in the database; no cut-off is given here.

Assay [1] concerns Rattus norvegicus. In words: Antiulcerogenic activity in Wistar rat assessed as cytoprotection against ethanol-induced gastric lesions at 40 mg/kg administered 60 mins before ethanol challenge. Type of assay: functional, organism-based. Also on record: dose 40 mg/kg. The settings on record: Stomach.
Assay [2] relates to Rattus norvegicus. Put plainly: Antiulcerogenic activity in Wistar rat assessed as cytoprotection against ethanol-induced gastric lesions administered 60 mins before ethanol challenge. In kind it is functional, organism-based. The settings on record: Stomach.

For the molecule `C=C1C(=O)O[C@H]2C[C@@H](C)[C@@H]3C=CC(=O)[C@@]3(C)[C@H](O)[C@H]12`, in the assay on Rattus norvegicus [1], the result was Active. Regarding `C=C1C(=O)O[C@H]2[C@H](O)[C@@H](C)[C@@H]3[C@@H](OC(=O)/C(C)=C\C)C[C@H](O)[C@@]3(C)[C@H](OC(C)=O)[C@H]12`, in the assay with Rattus norvegicus [1], the result was Active. Consider `CC1=CC(=O)C2=C(C)CC[C@@H]3[C@H](OC(=O)[C@H]3C)[C@@H]12`, for which the outcome in the assay with Rattus norvegicus [1] was inactive.

As for `C=C1C(=O)O[C@@H]2[C@H]1CC[C@H](C)[C@@]1(O)C=CC(=O)[C@@]21C`, the Activity result in the assay on Rattus norvegicus [2] is “Dose-dependent effect”. Moreover, in the assay on Rattus norvegicus [1], the outcome was Active. For the molecule `C=C1C(=O)O[C@@H]2[C@H]3C(C)=CC(=O)C3=C(C)CC[C@@H]12`, the Activity result with Rattus norvegicus [2] is “Dose-dependent effect”. The result with Rattus norvegicus [1] was Active. For `C=C1C(=O)O[C@@H]2[C@H]3C(=C)[C@@H](O)C[C@H]3C(=C)C[C@H](OC(=O)/C(C)=C\C)[C@@H]12`, the result in the assay with Rattus norvegicus [1] was Active. For the molecule `C=C1C(=O)O[C@@H]2C[C@@H](C)[C@@H]3C=CC(=O)[C@@]3(C)[C@@H](O)[C@H]12`, in the assay with Rattus norvegicus [1], the outcome was Active. Turning to `C=C1C(=O)O[C@H]2[C@H]1CCC(C)=C1C[C@H]3O[C@@]3(C)[C@@H]12`, the result with Rattus norvegicus [1] was Active.

For the origin of these results see ChEMBL document CHEMBL1158910, “The gastric cytoprotective effect of several sesquiterpene lactones” (J Nat Prod, 1990).
